In US10131652B2, “Pyrimidinyloxy benzene derivatives as herbicides” (E. I. DU PONT DE NEMOURS AND COMPANY, priority 2014, dated 2018):

Legend:
Assay type in all cases: in vivo
[1] = tested on: barnyardgrass (Echinochloa crus-galli); assay: Test D pre-/postemergence plant response; details: Postemergence; for Plant response rating (scale 0 to 100), Barnyardgrass: 16 g ai/ha; for Barnyardgrass plant response rating: 31 g ai/ha, scale 0 to 100 (0 no effect, 100 complete control); for Plant response rating, Barnyardgrass: scale 0 to 100, 0 no effect, 100 complete control
Procedure, shortened: (§1)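 Visual rating, 0–100 scale (0 = no effect, 100 = complete control), versus untreated controls 13 to 15 days after treatment in greenhouse. Preemergence: seeds in loam/sand soil. Postemergence: 2 to 18 cm plants, 1- to 4-leaf stage, peat-based medium. Compounds formulated in non-phytotoxic solvent plus surfactant.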

[2] = tested on: velvetleaf (Abutilon theophrasti); assay: Test D pre-/postemergence plant response; details: Postemergence; for Plant response rating (scale 0 to 100), Velvetleaf: 16 g ai/ha; for Plant response rating, Velvetleaf: 125 g ai/ha
Procedure, shortened: as §1

[3] = tested on: johnsongrass (Sorghum halepense); assay: Test D pre-/postemergence plant response; details: Postemergence; for Plant response rating (scale 0 to 100), Johnsongrass: 16 g ai/ha; for Johnsongrass plant response rating: 31 g ai/ha, scale 0 to 100 (0 no effect, 100 complete control); for Plant response rating, Johnsongrass: scale 0 to 100, 0 no effect, 100 complete control
Procedure, shortened: as §1

[4] = tested on: oilseed rape (Brassica napus); assay: Test D pre-/postemergence plant response; details: Postemergence; for Plant response rating (scale 0 to 100), Oilseed Rape: 16 g ai/ha; for Plant response rating, Oilseed Rape: 125 g ai/ha
Procedure, shortened: as §1

[5] = tested on: giant foxtail (Setaria faberii); assay: Test D pre-/postemergence plant response; details: Postemergence; for Plant response rating (scale 0 to 100), Foxtail, Giant: 16 g ai/ha; for Foxtail, Giant plant response rating: 31 g ai/ha, scale 0 to 100 (0 no effect, 100 complete control); for Plant response rating, Foxtail, Giant: scale 0 to 100, 0 no effect, 100 complete control
Procedure, shortened: as §1

[6] = tested on: blackgrass (Alopecurus myosuroides); assay: Test D pre-/postemergence plant response; details: Postemergence; for Plant response rating (scale 0 to 100), Blackgrass: 16 g ai/ha; for Blackgrass plant response rating: 31 g ai/ha, scale 0 to 100 (0 no effect, 100 complete control); for Plant response rating, Blackgrass: scale 0 to 100, 0 no effect, 100 complete control
Procedure, shortened: as §1

[7] = tested on: pigweed (Amaranthus retroflexus); assay: Test D pre-/postemergence plant response; details: Postemergence; for Plant response rating (scale 0 to 100), Pigweed: 16 g ai/ha; for Plant response rating, Pigweed: 125 g ai/ha
Procedure, shortened: as §1

[8] = tested on: kochia (Kochia scoparia); assay: Test B pre-/postemergence plant response
Procedure, shortened: (§2)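 Scoring used a 0–100 scale (100 = complete control) by visual comparison with untreated plants after approximately 10 days in the greenhouse. Compounds, in surfactant-containing non-phytotoxic solvent, were sprayed onto soil at planting or onto 2–10 cm seedlings.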

[9] = tested on: Italian ryegrass (Lolium multiflorum); assay: Test B pre-/postemergence plant response
Procedure, shortened: as §2

[10] = tested on: ragweed (common ragweed, Ambrosia elatior); assay: Test B pre-/postemergence plant response
Procedure, shortened: as §2

[11] = tested on: barnyardgrass (Echinochloa crus-galli); assay: Test C flooded paddy test plant response; details: Flood, 250 g ai/ha; scale of 0 to 100 where 0 is no effect and 100 is complete control; 13 to 15 days
Procedure, shortened: (§3)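 Scored visually on a 0–100 scale (100 = complete control) against untreated plants 13 to 15 days after treatment in the greenhouse. Compounds went into paddy water of pots flooded to 3 cm, holding 2-leaf-stage plants.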

[12] = tested on: rice (Oryza sativa); assay: Test C flooded paddy test plant response; details: Flood, 250 g ai/ha; scale of 0 to 100 where 0 is no effect and 100 is complete control; 13 to 15 days
Procedure, shortened: as §3

[13] = tested on: ducksalad (Heteranthera limosa); assay: Test C flooded paddy test plant response; details: Flood, 250 g ai/ha; scale of 0 to 100 where 0 is no effect and 100 is complete control; 13 to 15 days
Procedure, shortened: as §3

[14] = tested on: small-flower umbrella sedge (Cyperus difformis); assay: Test C flooded paddy test plant response; details: Flood, 250 g ai/ha; scale of 0 to 100 where 0 is no effect and 100 is complete control; 13 to 15 days
Procedure, shortened: as §3

[15] = 31 g ai/ha, scale 0 to 100 (0 no effect, 100 complete control)
[16] = 62 g ai/ha, scale 0 to 100, 0 no effect, 100 complete control
[17] = scale 0 to 100, 0 no effect, 100 complete control
[18] = Postemergence, 1000 g ai/ha, 0 to 100 scale (0 no effect, 100 complete control)
[19] = Preemergence, 1000 g ai/ha, 0 to 100 scale (0 no effect, 100 complete control)
[20] = 31 g ai/ha, Preemergence, 0 to 100 scale where 0 is no effect and 100 is complete control
[21] = 125 g ai/ha, postemergence, 0 to 100 scale, 0 no effect, 100 complete control
[22] = Postemergence, 31 g ai/ha, 0 to 100 scale (0 no effect, 100 complete control)
[23] = Preemergence, 125 g ai/ha, 0 to 100 scale (0 no effect, 100 complete control)

Clc1cnc(Oc2ccccc2-c2cc(Cl)sn2)nc1 [Compound 192]
Plant response rating (scale 0 to 100), Barnyardgrass [1]: 5 | Barnyardgrass plant response rating [1]: 5 | Plant response rating, Barnyardgrass ([1]; 62 g ai/ha): 5 | Plant response rating, Barnyardgrass ([1]; 125 g ai/ha): 5 | Plant response rating (scale 0 to 100), Velvetleaf [2]: 20 | Velvetleaf plant response rating [2, 15]: 20 | Velvetleaf plant response rating [2, 16]: 30 | Plant response rating, Velvetleaf [2, 17]: 55 | Plant response rating (scale 0 to 100), Johnsongrass [3]: 0 | Johnsongrass plant response rating [3]: 5 | Plant response rating, Johnsongrass ([3]; 62 g ai/ha): 5 | Plant response rating, Johnsongrass ([3]; 125 g ai/ha): 5 | Plant response rating (scale 0 to 100), Oilseed Rape [4]: 0 | Oilseed Rape plant response rating [4, 15]: 0 | Oilseed Rape plant response rating [4, 16]: 5 | Plant response rating, Oilseed Rape [4, 17]: 50 | Plant response rating (scale 0 to 100), Foxtail, Giant [5]: 10 | Foxtail, Giant plant response rating [5]: 25 | Plant response rating, Foxtail, Giant ([5]; 62 g ai/ha): 25 | Plant response rating, Foxtail, Giant ([5]; 125 g ai/ha): 15 | Plant response rating (scale 0 to 100), Blackgrass [6]: 0 | Blackgrass plant response rating [6]: 0 | Plant response rating, Blackgrass ([6]; 62 g ai/ha): 0 | Plant response rating, Blackgrass ([6]; 125 g ai/ha): 5 | Plant response rating (scale 0 to 100), Pigweed [7]: 15 | Pigweed plant response rating [7, 15]: 20 | Pigweed plant response rating [7, 16]: 55 | Plant response rating, Pigweed [7, 17]: 55 | Plant response rating, Kochia [8, 18]: 100 | Plant response rating, Kochia [8, 19]: 100 | Plant response rating, Ryegrass, Italian [9, 18]: 50 | Plant response rating, Ryegrass, Italian [9, 19]: 50 | Plant response rating, Ragweed [10, 18]: 60 | Plant response rating, Ragweed [10, 19]: 20 | Barnyardgrass plant response rating [11]: 0 | Rice plant response rating [12]: 0 | Ducksalad plant response rating [13]: 60 | Sedge, Umbrella plant response rating [14]: 40

FC(Cl)(Cl)c1cc(-c2ccccc2Oc2ncc(Cl)cn2)no1 [Compound 198]
Plant response rating (scale 0 to 100), Barnyardgrass [1]: 10 | Barnyardgrass plant response rating [1]: 10 | Plant response rating, Barnyardgrass ([1]; 62 g ai/ha): 20 | Plant response rating, Barnyardgrass ([1]; 125 g ai/ha): 35 | Plant response rating (scale 0 to 100), Velvetleaf [2]: 50 | Velvetleaf plant response rating [2, 15]: 45 | Velvetleaf plant response rating [2, 16]: 55 | Plant response rating, Velvetleaf [2, 17]: 55 | Plant response rating (scale 0 to 100), Johnsongrass [3]: 5 | Johnsongrass plant response rating [3]: 20 | Plant response rating, Johnsongrass ([3]; 62 g ai/ha): 35 | Plant response rating, Johnsongrass ([3]; 125 g ai/ha): 35 | Plant response rating (scale 0 to 100), Oilseed Rape [4]: 30 | Oilseed Rape plant response rating [4, 15]: 50 | Oilseed Rape plant response rating [4, 16]: 60 | Plant response rating, Oilseed Rape [4, 17]: 90 | Plant response rating (scale 0 to 100), Foxtail, Giant [5]: 10 | Foxtail, Giant plant response rating [5]: 15 | Plant response rating, Foxtail, Giant ([5]; 62 g ai/ha): 15 | Plant response rating, Foxtail, Giant ([5]; 125 g ai/ha): 25 | Plant response rating (scale 0 to 100), Blackgrass [6]: 5 | Blackgrass plant response rating [6]: 5 | Plant response rating, Blackgrass ([6]; 62 g ai/ha): 10 | Plant response rating, Blackgrass ([6]; 125 g ai/ha): 15 | Plant response rating (scale 0 to 100), Pigweed [7]: 85 | Pigweed plant response rating [7, 15]: 98 | Pigweed plant response rating [7, 16]: 90 | Plant response rating, Pigweed [7, 17]: 100 | Plant response rating, Kochia [8, 20]: 0 | Plant response rating, Kochia [8, 21]: 80 | Plant response rating, Kochia [8, 22]: 80 | Kochia plant response rating [8, 23]: 30 | Plant response rating, Ryegrass, Italian [9, 20]: 0 | Plant response rating, Ryegrass, Italian [9, 21]: 50 | Plant response rating, Ryegrass, Italian [9, 22]: 10 | Ryegrass, Italian plant response rating [9, 23]: 20 | Plant response rating, Ragweed [10, 20]: 0 | Plant response rating, Ragweed [10, 21]: 20 | Plant response rating, Ragweed [10, 22]: 10 | Ragweed plant response rating [10, 23]: 10 | Barnyardgrass plant response rating [11]: 40 | Rice plant response rating [12]: 25 | Ducksalad plant response rating [13]: 85 | Sedge, Umbrella plant response rating [14]: 100
